# Read-outs that look alike come from different tables or passages of the source.
# Assays:
# S. pyogens ATCC49399 [1] = test: MIC assay, serial dilution; settings: Streptococcus
# Organ exposure in mice = settings: mice IV 3 mg/kg
# E. coli ATCC25922 = test: MIC assay, serial dilution; settings: Escherichia coli
# MRSA ATCC 43300 [2] = test: Serum effect on antibacterial activity (MIC); format: cell-based, S. aureus; settings: Staphylococcus aureus
# S. epidermidis ATCC14990 [3] = test: MIC assay, serial dilution; settings: Staphylococcus epidermidis
# S. pneumoniae ATCC49619 [4] = test: MIC assay, serial dilution; settings: Streptococcus pneumoniae
# Sensitive strain = test: Cross resistance test (MIC); settings: read-out: MIC, Sensitive strain
# MRSA/S. aureus isolates = test: MIC50 against isolates; format: cell-based; settings: Staphylococcus aureus
# E. faecium ATCC27270 [5] = test: MIC assay, serial dilution; settings: Enterococcus faecium
# S. pyogens ATCC49399 [6] = test: Minimum bactericidal concentration assay; format: cell-based; settings: Streptococcus
# Description: (§1) The study was done based on CLSI document M26-A Wayne, PA: Clinical and laboratory standard institute: 1999.
# (§2) After determination of a MIC in a broth system under standard conditions, measured aliquots of growth media may be sub-cultured quantitatively to solid media to assess bactericidal activity. To calculate the extent of killing at each antibiotic concentration, plates are incubated under appropriate conditions, colony counts are performed and results are compared to that of the growth control well. The accepted definition of the minimum bactericidal concentration (MBC) is the lowest concentration of test compound at which a 99.9% (3 log) or greater reduction in growth compared with the initial inoculum is observed. […] (Table 4).
# S. epidermidis ATCC14990 [7] = test: Minimum bactericidal concentration assay; format: cell-based; settings: Staphylococcus epidermidis
# Description: as §1, §2
# E. faecalis ATCC29212 [8] = test: Minimum bactericidal concentration assay; format: cell-based; settings: Enterococcus faecalis
# Description: as §1, §2
# E. faecium ATCC27270 [9] = test: Minimum bactericidal concentration assay; format: cell-based; settings: Enterococcus faecium
# Description: as §1, §2
# S. aureus ATCC25923 [10] = test: Minimum bactericidal concentration assay; format: cell-based; settings: Staphylococcus aureus
# Description: as §1, §2
# S. pneumoniae ATCC49619 [11] = test: Minimum bactericidal concentration assay; format: cell-based; settings: Streptococcus pneumoniae
# Description: as §1, §2
# MRSA ATCC 43300 [12] = test: Minimum biofilm inhibition assay; format: cell-based, S. aureus
# Description: The biofilm susceptibility assay and calculation of the percent reduction of AB were performed as described previously (Pettit et al., Antimicrob Agents Chem 2005, 49:2612-17). Biofilm formation was induced by growing MRSA on TSA containing 2% glucose at 37° C. for 24 hrs. After the incubation, culture was used to adjust the cell number to 1-5×10^5 CFU/mL. In parallel, two-fold dilutions of test drug/antibiotic in DMSO/solvent was prepared separately in a PCR dilution plate. 100 μL of CFU adjusted 100 μL of culture was added to 96 well plate by leaving wells for only media control. After adding culture, 2-fold diluted compound in 100% DMSO was added to 96 well plate and plates were incubated another 16-20 hrs at 37° C., to check susceptibility of biofilm forming MRSA with test drug/antibiotic. After susceptibility incubation, Resazurin was added to check inhibition of biofilm forming cells.
# [13] = Mouse plasma pharmacokinetics
# Description: For the mouse plasma pharmacokinetic analyses, the study was conducted in BALB/c mice with single dose of IV-3 mg/kg. Blood samples were collected at 10 time points/dose (0.25, 0.5, 1, 2, 4, 6, 8, 10, 12, and 24 h post dose). At each time point, blood samples were collected from 4 mice from the retro-orbital plexus. A terminal blood collection method was employed for collecting blood samples for each time point in all PK studies. […] The PK parameters were estimated by noncompartmental analysis.
# Dose—mg/kg, AUC—ng. h/mL, Cmax-ng/mL, Tmax-h, Kel—1/h, Half-life-h, MRT-h, Clearance—mL/min/kg, Vd-L/kg, Bioavailability-%. IV—Intravenous, IP— Intraperitoneal, PO—Per oral.
# A. baumannii ATCC19606 = test: MIC assay, serial dilution; settings: Acinetobacter baumannii
# S. aureus ATCC25923 [14] = test: MIC assay, serial dilution; settings: Staphylococcus aureus
# E. faecalis ATCC29212 [15] = test: MIC assay, serial dilution; settings: Enterococcus faecalis
# [16] = BALB/c, mouse, in vivo, iv, 3 mg/kg
smiles,measurement,setting,value
"CC1(C)C2CN(c3ccc4nc5ccc(N6CC7C(C6)C7(C)C)cc5[s+]c4c3)CC21 (stereo not shown) [Compound 1, 3,7-Di(6,6-dimethyl-3-azabicyclo[3.1.0]hexan-N-yl)phenothiazinium iodide]",MIC,S. pyogens ATCC49399 [1],0.25 µg/mL
same,"Organ exposure, concentration","Organ exposure in mice; Brain, 0.5 hrs",81 ng
same,"Organ exposure, concentration","Organ exposure in mice; Brain, 2 hrs",56 ng
same,"Organ exposure, concentration","Organ exposure in mice; Brain, 24 hrs",30 ng
same,"Organ exposure, concentration","Organ exposure in mice; Heart, 0.5 hrs",1335 ng
same,"Organ exposure, concentration","Organ exposure in mice; Heart, 2 hrs",1951 ng
same,"Organ exposure, concentration","Organ exposure in mice; Heart, 24 hrs",821 ng
same,"Organ exposure, concentration","Organ exposure in mice; Kidney, 0.5 hrs",1817 ng
same,"Organ exposure, concentration","Organ exposure in mice; Kidney, 2 hrs",2179 ng
same,"Organ exposure, concentration","Organ exposure in mice; Kidney, 24 hrs",637 ng
same,"Organ exposure, concentration","Organ exposure in mice; Liver, 0.5 hrs",13897 ng
same,"Organ exposure, concentration","Organ exposure in mice; Liver, 2 hrs",11563 ng
same,"Organ exposure, concentration","Organ exposure in mice; Liver, 24 hrs",864 ng
same,"Organ exposure, concentration","Organ exposure in mice; Lungs, 0.5 hrs",13003 ng
same,"Organ exposure, concentration","Organ exposure in mice; Lungs, 2 hrs",4178 ng
same,"Organ exposure, concentration","Organ exposure in mice; Lungs, 24 hrs",661 ng
same,"Organ exposure, concentration","Organ exposure in mice; Muscle, 0.5 hrs",154.5 ng
same,"Organ exposure, concentration","Organ exposure in mice; Muscle, 2 hrs",324.5 ng
same,"Organ exposure, concentration","Organ exposure in mice; Muscle, 24 hrs",168.33 ng
same,MIC,"E. coli ATCC25922; ATCC25922, E. coli ATCC25922",4 µg/mL
same,MIC,"E. coli ATCC25922; ATCC25922, read-out: Anti-bacterial Activity (E. coli MIC (uM)), E. coli, Table 5",1.6 µM
same,MIC,"MRSA ATCC 43300 [2]; MRSA ATCC 43300, 20% serum",1 µg/mL
same,MIC,"MRSA ATCC 43300 [2]; MRSA ATCC 43300, 40% serum",2 µg/mL
same,MIC,"MRSA ATCC 43300 [2]; MRSA ATCC 43300, No serum",0.25 µg/mL
same,MIC,S. epidermidis ATCC14990 [3],0.5 µg/mL
same,MIC,S. pneumoniae ATCC49619 [4],0.25 µg/mL
same,MIC,Sensitive strain,0.25 µg/mL
same,MIC50,MRSA/S. aureus isolates,0.125 µg/mL
same,MIC,E. faecium ATCC27270 [5],0.5 µg/mL
same,MBC,S. pyogens ATCC49399 [6],0.5 µg/mL
same,MBC,S. epidermidis ATCC14990 [7],1 µg/mL
same,MBC,E. faecalis ATCC29212 [8],2 µg/mL
same,MBC,E. faecium ATCC27270 [9],0.5 µg/mL
same,MBC,S. aureus ATCC25923 [10],0.25 µg/mL
same,MBC,S. pneumoniae ATCC49619 [11],0.5 µg/mL
same,MBIC,"MRSA ATCC 43300 [12]; MRSA ATCC 43300, biofilm forming",0.25
same,concentration inhibiting biofilm forming MRSA,MRSA ATCC 43300 [12]; biofilm forming MRSA,1 × MIC
same,AUC(0-inf),[13]; [16],2980 ng·h/mL
same,AUC(0-t),[13]; [16],2710 ng·h/mL
same,Cmax,[13]; [16],5620 ng/mL
same,MRT,[13]; [16],7 h
same,Tmax,[13]; [16],4.8 min
same,Vd,[13]; [16],7 L/kg
same,clearance,[13]; [16],17 mL/min/kg
same,half-life,[13]; [16],10 h
same,Kel,"[13]; mice, IV 3 mg/kg single dose",0.07 h⁻¹
same,MIC,A. baumannii ATCC19606,2 µg/mL
same,MIC,S. aureus ATCC25923 [14],0.25 µg/mL
same,MIC,E. faecalis ATCC29212 [15],2 µg/mL
